Data as given in patent US20230172936A1, “VCP/p97 INHIBITOR FOR THE TREATMENT OF CANCER” (Cleave Therapeutics, Inc., priority 2020, published 2023).
Like-named read-outs stand apart in the source and are kept apart here.

Columns and labels:
MV-4-11 = experiment: Combination Index (Chou-Talalay) of Compound 1 with additional therapeutic agents; format: cell-based, human; conditions: for Combination Index of Compound 1 + agent: MV-4-11, CI scores across all 3 ratios averaged
Procedure: (§1) Each combination was tested in 3 cell lines: MOML-13 (Human Acute Myeloid Leukemia cell line; Addex Bio), MV-4-11 (Human B Myelomoncytic Leukemia cell line; ATCC), and OCI-AML-3 (Human Acute Myeloid Leukemia cell line).
(§2) Within this range, 20 dose levels were tested for each combination, with each response determined in duplicate. […] The actual drug concentrations in the ratios were determined from the IC50 values obtained for each individual drug.
(§3) Raw data was analyzed using Graph Pad Prism, four parameter logistic fits, and Chou-Talalay drug combination analyses. […] For data points with Fe<0, the fractional effect was set to 0.001. Data points with Fe>0.99 or <0.01 were omitted from the Chou-Talalay analysis because the Chou-Talalay analysis fits data to the Log of the fractional effect, with equal weight applied across the range of effect, such that the high and low end of the dose response, very small changes in effect within the range of experimental error erroneously skew the outcome of the model fit.
(§4) A Combination Index (CI) vs Fractional Effect plot showing the actual combination index plotted vs Fractional effect value was plotted for each combination dose. In this analysis, CI=1 represents additive activity, CI>1 represent less than additive activity (often referred to as antagonism) and CI<1=synergistic activity (better than additive).

MOML-13 = experiment: as above; format: cell-based, human; conditions: for Combination Index of Compound 1 + agent: MOML-13, CI scores across all 3 ratios averaged; for action of the combination with Compound 1 (synergistic, additive, antagonistic): MOML-13 (FLT3 heterozygous, BRCA2 mutant)
Procedure: as §1, §2, §3, §4

OCI-AML-3 = experiment: as above; format: cell-based, human; conditions: for Combination Index of Compound 1 + agent: OCI-AML-3, CI scores across all 3 ratios averaged
Procedure: as §1, §2, §3, §4

HL-60 cell line = experiment: Combination treatments, Cell Titer-Glo viability after 72 hours; format: cell-based, human
Procedure: (§5) The additional therapeutic agents for this example were azacitidine (Cayman Chemical Cat No. 11164), decitabine (Sigma Cat No. A3656) and venetoclax (InvivoChem Cat. No. V0001).
(§6) Cell Culture: Three human acute myeloid leukemia tumor cell lines were used in this study: HL60, MV4;11 and MOLM-13. HL60 and MV4;11 were grown in IMDM base media with 20% and 10% FBS, respectively. MOLM-13 was grown in RPMI 1640 base media with 20% FBS. All culture media contained 2 mM glutamine, 100 units/mL sodium penicillin G, […] gentamicin, and 100 μg/mL streptomycin sulfate. The tumor cells were cultured in tissue culture flasks in a humidified incubator at 37° C., in an atmosphere of 5% C02 and 95% air. Assay: Tumor cells were seeded in duplicate in a volume of 100 μL/well of media into 96-well micro-culture plates at initial densities low enough to allow for several population doublings (typically three to five) during the indicated incubation period. After a 24 hour incubation, test agents were added to each well. After 72 hours of culture with test articles, cell viability was determined using the Cell Titer-Glo® (Promega G7571) assay. Briefly, Cell Titer-Glo® (Promega G7571) reagents were equilibrated at room temperature for 30 minutes; 100 μL per well was added at endpoint (72 hours). Plates were gently shaken for two minutes and then incubated at room temperature for ten minutes prior to reading luminescence on the BMG Clariostar Plus microplate reader.
(§7) An IC50 ratio for each combination was calculated from the ratio of the combination IC50 as compared to the applicable no fixed agent (vehicle) control.

MOML-13 cell line = experiment: as above; format: cell-based, human
Procedure: as §5, §6, §7

MV4; 11 cell line = experiment: as above; format: cell-based, human
Procedure: as §5, §6, §7

[1] = tested on: human A549 lung adenocarcinoma xenograft tumors; experiment: Tumor growth of A549 xenograft tumors; format: in vivo, mice; conditions: 55 mg/kg QD4/3 off
Source text: (§8) Group 1 received PO 4-days on, 3-days off doses (QD4/3 off) of vehicle.

[2] = 55 mg/kg QD4/3 off
Source text: as §8

[3] = Adverse events and visual impairment in Phase I subjects; conditions: at equivalent plasma exposure of Compound 1 and CB-5083
[4] = HL-60, fixed agent Compound 1 - 210 nM
[5] = MOML-13, fixed agent Compound 1 - 75 nM
[6] = MV4, 11, fixed agent Compound 1 - 185 nM

| SMILES | Combination Index of Compound 1 + agent (MV-4-11) | Combination Index of Compound 1 + agent (MOML-13) | Combination Index of Compound 1 + agent (OCI-AML-3) | further results |
| --- | --- | --- | --- | --- |
| CN(C)CCCOc1ccc(-c2ccc3ncc4c(c3c2)n(C2CCOCC2)c(=O)n4C)cn1 [AZDO156] | 1.122 | 1.293 | 1.159 | – |
| CC(C)C[C@H](NC(=O)CNC(=O)c1cc(Cl)ccc1Cl)B(O)O [Ixazomib] | 1.546 | 1.413 | 1.438 | action of the combination with Compound 1 (synergistic, additive, antagonistic) (MV-4-11; MV-4-11 (FLT3 homozygous mutant)): antagonistic; action of the combination with Compound 1 (synergistic, additive, antagonistic) (MOML-13): antagonistic; action of the combination with Compound 1 (synergistic, additive, antagonistic) (OCI-AML-3; OCI-AML-3 (FLT3 wildtype)): antagonistic |
| Nc1ncn([C@@H]2O[C@H](CO)[C@@H](O)[C@H]2O)c(=O)n1 [Azacitidine, azacitidine, reference compound] | – | – | – | Combination: Monotherapy IC50 Ratio (HL-60 cell line; [4]): 0.82; IC50 (HL-60 cell line; Homo sapiens, 72 h, HL-60, no fixed agent (vehicle), read-out: IC50): 2400 nM; IC50 (MOML-13 cell line; Homo sapiens, 72 h, MOML-13, no fixed agent (vehicle), read-out: IC50): 445 nM; Combination: Monotherapy IC50 Ratio (MOML-13 cell line; [5]): 0.28; IC50 (MV4; 11 cell line; Homo sapiens, 72 h, MV4, 11, no fixed agent (vehicle), read-out: IC50): 1100 nM; Combination: Monotherapy IC50 Ratio (MV4; 11 cell line; [6]): 0.10 |
| C[C@@H]1COCCN1c1cc(C2([S@](C)(=N)=O)CC2)nc(-c2cc[nH]c3nccc2-3)n1 [AZD6738] | 1.228 | 1.338 | 1.421 | – |
| CCc1nc(C(N)=O)c(Nc2ccc(N3CCC(N4CCN(C)CC4)CC3)c(OC)c2)nc1NC1CCOCC1 [Gilteritinib] | 0.799 | 1.266 | 1.514 | – |
| Cc1cc2c(C(N)=O)cccc2n1-c1nc2c(c(NCc3ccccc3)n1)COCC2 [CB-5083, 1-[7,8-dihydro-4-[(phenylmethyl)amino]-5H-pyrano[4,3-d]pyrimidin-2-yl]-2-methyl-1H-indole-4-carboxamide, reference compound] | – | – | – | TGI [1]: 33%; drug-related deaths [2]: no drug-related deaths; symptoms of visual impairment or other visual adverse events [3]: visual adverse events as seen |
| Nc1ncn([C@H]2C[C@H](O)[C@@H](CO)O2)c(=O)n1 [Decitabine, decitabine, reference compound] | – | – | – | Combination: Monotherapy IC50 Ratio (HL-60 cell line; [4]): 0.76; IC50 (HL-60 cell line; [4]): 4030 nM; IC50 (HL-60 cell line; Homo sapiens, HL-60, 72 h): 5290 nM; IC50 (MOML-13 cell line; Homo sapiens, 72 h): 10.8 nM; Combination: Monotherapy IC50 Ratio (MOML-13 cell line; [5]): 0.60; IC50 (MOML-13 cell line; [5]): 6.5 nM; IC50 (MV4; 11 cell line; Homo sapiens, MV4-11, 72 h): 390 nM; Combination: Monotherapy IC50 Ratio (MV4; 11 cell line; [6]): 0.02; IC50 (MV4; 11 cell line; [6]): 7.1 nM |
| COCC1(CO)C(=O)C2CCN1CC2 (stereo not shown) [APR-246] | 1.285 | 1.228 | 1.279 | – |
| COc1ccc([C@@H](O)c2cc(-c3ncnc4cc(N5CCOCC5)ccc34)c(F)cc2Cl)nn1 [Nedisertib] | 0.986 | 1.272 | 1.170 | – |
| CC1(C)CCC(CN2CCN(c3ccc(C(=O)NS(=O)(=O)c4ccc(NCC5CCOCC5)c([N+](=O)[O-])c4)c(Oc4cnc5[nH]ccc5c4)c3)CC2)=C(c2ccc(Cl)cc2)C1 [Venetoclax] | 0.819 | 0.730 | 0.855 | – |
| NS(=O)(=O)OC[C@@H]1C[C@@H](n2ccc3c(N[C@H]4CCc5ccccc54)ncnc32)C[C@@H]1O [Pevonedistat] | 1.302 | 1.120 | 1.186 | – |
| Cn1ncnc1[C@H]1c2n[nH]c(=O)c3cc(F)cc(c23)N[C@@H]1c1ccc(F)cc1 [Talazoparib] | 0.769 | 0.529 | 0.986 | action of the combination with Compound 1 (synergistic, additive, antagonistic) (MOML-13): strong synergy |
